# Measurements: US10369183B2, “Therapeutic compositions from jamaican bitter yam and methods of making and using same” (University of The West Indies, priority 2008, dated 2019)
# Marks after values point to notes of the source that are not given here.
# What was measured:
# Assay type in all cases: in vivo, Wistar rats
# [1] = test system: diabetic rats; assay: Lipid peroxidation (conjugated dienes, TBARS) in diabetic rats; conditions: diabetic rats fed 1% of diet, 4 weeks, mean ± SEM
# From the text: (§1) Experimental design for the animal studies: adult Wistar rats […] were divided into six groups (8 rats per group, average body weight 249.0±0.3 g) as follows: Group 1—healthy rats receiving normal diet (normal); Group 2—diabetic rats fed normal diet (diabetic); Group 3—diabetic rats fed sapogenin extract (as 1% of the diet); Group 4—diabetic rats fed diosgenin (as 1% of normal diet); Group 5—diabetic rats fed bitter yam (as 1% of diet); and Group 6 fed the bitter yam therapeutic product (BYTP—as 1% of the diet).
# (§2) The rats except the control group were made diabetic using standard procedures involving streptozotocin (60 mg/kg body weight in 0.05 M citrate buffer, pH 4.5) injection intraperitonally. The control group rats were injected with an equivalent amount of buffer (0.05 M citrate buffer, pH 4.5). The normal rat diet (PMI Feeds Inc., Lab diet #5001) was a marketed laboratory rodent diet recommended for rats, mice and hamsters with the approximate chemical composition: protein 23%, fat 4.5%, fiber 6.0%, ash 8.0% and carbohydrate 58.5%. Rats were housed in stainless steel cages in a room kept on a 12-hour light-dark cycle, and were allowed to have access to their respective diets and water freely. The cages were cleaned daily. Body weight change, faecal output and total food intake were recorded weekly. The rats were fed on their respective diets for 4 weeks and sacrificed by decapitation after an overnight fast. Blood was collected in oxalate/fluoride vacutainers. The intestine, kidney, liver and spleen were excised, weighed and frozen in liquid nitrogen and stored at −20° C. until required for analysis. A section of the jejunum was cut and stored in 10% buffered formalin.
# Lipid peroxidation assays were conducted using the procedure of Tappel and Zalkin, Arch Biochim Biophys, 80: 333-336 (1959). Concentration of conjugated dienes in the liver was determined using the method of Hu et al., J Nutr, 119: 1574-1582 (1989).
# [2] = test system: alanine transaminase; assay: Alanine transaminase activity of liver, kidney and spleen in diabetic rats; conditions: diabetic rats fed 1% of diet, 4 weeks, mean ± SEM
# From the text: as §1, §2
# [3] = test system: aspartate transaminase; assay: Aspartate transaminase activity of liver, kidney and spleen in diabetic rats; conditions: diabetic rats fed 1% of diet, 4 weeks, mean ± SEM
# From the text: as §1, §2
# [4] = test system: acid phosphatase; assay: Acid phosphatase activity of liver, kidney and spleen in diabetic rats; conditions: diabetic rats fed 1% of diet, 4 weeks, mean ± SEM
# From the text: as §1, §2
# [5] = test system: Na^+/K^+ ATPase; assay: Intestinal Na+/K+ ATPase activity in diabetic rats; conditions: diabetic rats fed 1% of diet, mean ± SEM
# Procedure: (§3) Group 1—healthy rats receiving normal diet (normal); Group 2—diabetic rats fed normal diet (diabetic); […] Group 4—diabetic rats fed diosgenin (as 1% of normal diet); Group 5—diabetic rats fed bitter yam (as 1% of diet); and Group 6 fed the bitter yam therapeutic product (BYTP—as 1% of the diet). The rats except the control group were made diabetic using standard procedures involving streptozotocin (60 mg/kg body weight in 0.05 M citrate buffer, pH 4.5) injection intraperitonally. The control group rats were injected with an equivalent amount of buffer (0.05 M citrate buffer, pH 4.5). […] Rats were housed in stainless steel cages in a room kept on a 12-hour light-dark cycle, and were allowed to have access to their respective diets and water freely. The cages were cleaned daily. Body weight change, faecal output and total food intake were recorded weekly. The rats were fed on their respective diets for 4 weeks and sacrificed by decapitation after an overnight fast. Blood was collected in oxalate/fluoride vacutainers. The intestine, kidney, liver and spleen were excised, weighed and frozen in liquid nitrogen and stored at −20° C. until required for analysis. A section of the jejunum was cut and stored in 10% buffered formalin. Na^+/K^+ and Ca^+ ATPase activities were measured by the amount of inorganic phosphate released following incubation with disodium ATP and cations for the appropriate ATPase (see Bonting et al., Sodium-potassium activated adenosinetriphosphatase and cation transport, in Membranes and Ion Transport I, Bittar (Ed.). Wiley-Interscience, N.Y., pp. 257-363 (1970); and Bonting et al., Archives of Biochemistry and Biophysics 101: 47-55 (1963)). The inorganic phosphate was determined by the method of Fiske and Subarow, Journal of Biological Chemistry 66: 375-400 (1925).
# [6] = test system: Mg^2+ ATPase; assay: Intestinal Mg2+ ATPase activity in diabetic rats; conditions: diabetic rats fed 1% of diet, mean ± SEM
# [7] = test system: Ca^2+ ATPase; assay: Intestinal Ca2+ ATPase activity in diabetic rats; conditions: diabetic rats fed 1% of diet, mean ± SEM
# Procedure: as §3
# [8] = test system: glucose-6-phosphatase; assay: Glucose-6-phosphatase activity in liver and kidneys of diabetic rats; conditions: diabetic rats fed 1% of diet, mean ± SEM
# From the text: as §1
# as §2, with “The rats were fed on their respective diets for 4 weeks and sacrificed by decapitation after an overnight fast. Blood was collected in oxalate/fluoride vacutainers. The intestine, kidney, liver and spleen were excised, weighed and frozen in liquid nitrogen and stored at −20° C. until required for analysis. A section of the jejunum was cut and stored in 10% buffered formalin.” left out
# [9] = test system: maltase; assay: Intestinal maltase activity in diabetic rats; conditions: diabetic rats fed 1% of diet, mean ± SEM
# From the text: as §1, §2
smiles,measurement,setting,value
C[C@@H]1CC[C@@]2(OC1)O[C@H]1C[C@H]3[C@@H]4CC=C5C[C@@H](O)CC[C@]5(C)[C@H]4CC[C@]3(C)[C@H]1[C@@H]2C [diosgenin],Kidney TBARS,[1],61.7 ± 6.6^a nmol/g kidney
same,Liver TBARS,[1],18.1 ± 2.1^a nmol/g liver
same,Conjugated dienes,[1]; liver,0.428 ± 0.082^a μmole/g liver
same,Alanine transaminase,[2]; kidney,5.4 ± 0.5^a mg pyr/min/mg protein × 10^−4
same,Alanine transaminase,[2]; liver,14.1 ± 2.80^a mg pyr/min/mg protein × 10^−4
same,Alanine transaminase,[2]; spleen,10.7 ± 1.8^ab mg pyr/min/mg protein × 10^−4
same,Aspartate transaminase,[3]; kidney,5.5 ± 0.6^bc mg pyr/min/mg protein × 10^−4
same,Aspartate transaminase,[3]; liver,8.6 ± 0.7^ab mg pyr/min/mg protein × 10^−4
same,Aspartate transaminase,[3]; spleen,7.1 ± 1.3^ab mg pyr/min/mg protein × 10^−4
same,Acid phosphatase,[4]; kidney,27.3 ± 1.1^a mg PNP/min/mg protein × 10^−5
same,Acid phosphatase,[4]; liver,17.3 ± 0.9^a mg PNP/min/mg protein × 10^−5
same,Acid phosphatase,[4]; spleen,9.0 ± 0.8^b mg PNP/min/mg protein × 10^−5
same,Specific activity of Na^+/K^+ ATPase from rat intestinal sections,[5]; Distal,7.3 ± 0.1^c nmol Pi/min/mg protein
same,Specific activity of Na^+/K^+ ATPase from rat intestinal sections,[5]; Mid,9.5 ± 0.1^c nmol Pi/min/mg protein
same,Specific activity of Na^+/K^+ ATPase from rat intestinal sections,[5]; Proximal,12.8 ± 0.2^c nmol Pi/min/mg protein
same,Specific activity of Mg^2+ ATPase from rat intestinal sections,[6]; Distal,16.4 ± 0.6^a nmol Pi/min/mg protein
same,Specific activity of Mg^2+ ATPase from rat intestinal sections,[6]; Mid,22.1 ± 0.4^b nmol Pi/min/mg protein
same,Specific activity of Mg^2+ ATPase from rat intestinal sections,[6]; Proximal,27.8 ± 0.5^a nmol Pi/min/mg protein
same,Specific activity of Ca^2+ ATPase from rat intestinal sections,[7]; Distal,13.1 ± 0.3^b nmol Pi/min/mg protein
same,Specific activity of Ca^2+ ATPase from rat intestinal sections,[7]; Mid,17.1 ± 0.4^c nmol Pi/min/mg protein
same,Specific activity of Ca^2+ ATPase from rat intestinal sections,[7]; Proximal,34.9 ± 0.6^a nmol Pi/min/mg protein
same,"glucose-6-phosphatase activity, Kidney",[8]; kidney,11.0 ± 2.0^b μmole/min/mg protein × 10^−2
same,"glucose-6-phosphatase activity, Liver",[8]; liver,8.3 ± 1.0^a μmole/min/mg protein × 10^−2
same,Specific activity of maltase from different sections of the rat intestine,[9]; Distal,14.0 ± 1.0.^A nmol maltase/min/mg protein
same,Specific activity of maltase from different sections of the rat intestine,[9]; Mid,17.1 ± 0.9^a nmol maltase/min/mg protein
same,Specific activity of maltase from different sections of the rat intestine,[9]; Upper,18.4 ± 1.2^a nmol maltase/min/mg protein
